This is an account of results in patent US11084800B2 (Achillion Pharmaceuticals, Inc., priority 2017, dated 2021).

A word on the IC50: it is the midpoint of a concentration-inhibition curve.

In this experiment the target is Human Factor D (Homo sapiens (Human), UniProt P00746). Description: Human Factor D Assay. The class given is biochemical. The conditions noted are these: Table 6; Factor D 80 nM, substrate Z-L-Lys-SBz; read-out: IC50. In short, it runs like this:
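Thioester substrate Z-L-Lys-SBz (100 μM) with Ellman's reagent DTNB (100 μM) reports activity of 80 nM human serum-derived enzyme, kinetically at 405 nm over 30 min. Compound preincubated 5 min, room temperature, pH 7.5 Tris/1 M NaCl; IC50 by nonlinear fit of rates.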

Chain of Human Factor D (P00746 26-253): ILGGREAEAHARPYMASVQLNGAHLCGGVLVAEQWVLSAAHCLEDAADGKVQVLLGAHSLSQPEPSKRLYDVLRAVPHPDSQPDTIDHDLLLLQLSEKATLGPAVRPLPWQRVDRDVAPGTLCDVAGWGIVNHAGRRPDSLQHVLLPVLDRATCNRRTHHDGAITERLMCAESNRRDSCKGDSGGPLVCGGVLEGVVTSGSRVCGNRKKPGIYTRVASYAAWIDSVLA

Turning to “(1R,3S,5S)-2-(2-(3-Acetyl-5-(2-methylpyrimidin-5-yl)-1H-indazol-1-yl)acetyl)-N-(6-bromo-3-(methoxymethyl)pyridin-2-yl)-5-(methoxymethyl)-2-azabicyclo[3.1.0]hexane-3-carboxamide [Compound 49]”, the 50% inhibitory concentration (IC50) was < 1000 nM.
